Measured values: ChEMBL document CHEMBL1142106, “Resin glycosides from the roots of Ipomoea tyrianthina and their biological activity” (2007)
The source made the active and inactive calls. No cut-off for these calls is given here.

Tests used:
[1] = test system: Mus musculus; assay: Anxiolytic activity of ICR mouse assessed as increase in time spent in open arms at 1.0 mg/kg, ip by EPM test relative to control; format: functional, organism-based; set-up: dose 1 mg/kg
[2] = test system: Mus musculus; assay: Anticonvulsant effect in ICR mouse assessed as mortality protection against pentylenetetrazole-induced seizures at 1.0 mg/kg, ip relative to control; format: functional, organism-based; set-up: dose 1 mg/kg
[3] = test system: Ileum; assay: Relaxation of spontaneous contractions of isolated rat ileum at 250 ug/mL relative to control; format: functional
[4] = test system: Ileum; assay: Relaxation of spontaneous contractions of isolated rat ileum relative to control; format: functional, tissue-based
[5] = test system: Mus musculus; assay: Anxiolytic activity of ICR mouse at 10 mg/kg, ip by EPM test relative to control; format: functional, organism-based; set-up: dose 10 mg/kg
[6] = test system: Mus musculus; assay: Anticonvulsant effect in ICR mouse assessed as mortality protection against pentylenetetrazole-induced seizures at 40 mg/kg, ip relative to control; format: functional; settings: route intraperitoneal
[7] = test system: Mus musculus; assay: Antidepressant activity in ICR mouse assessed as diminution of immobility time at 10 mg/kg, ip by forced swimming test relative to control; format: functional, organism-based; set-up: dose 10 mg/kg
[8] = test system: Mus musculus; assay: Anticonvulsant effect in ICR mouse assessed as mortality protection against pentylenetetrazole-induced seizures at 10 mg/kg, ip relative to control; format: functional; settings: route intraperitoneal

Row | Compound | Activity [1] | Activity [2] | Emax at 250 µg/mL [3] | Activity [4] | Activity [5] | Activity [6] | Activity [7] | Activity [8]
1 | CN1C(=O)CN=C(c2ccccc2)c2cc(Cl)ccc21 | Active | Active |  |  |  |  |  | 
2 | C/C=C(\C)C(=O)O[C@H]1[C@H](O)[C@@H](O)[C@H](O[C@@H]2[C@H]3OC(=O)CCCCCCCCCC(CCCCC)O[C@@H]4O[C@H](C)[C@@H](O)[C@H](O)[C@H]4O[C@@H]4O[C@H](CO)[C@@H](O)[C@H](O)[C@H]4O[C@H](O[C@H]2C)[C@@H]3OC(=O)C(C)CC)O[C@@H]1C (some centres undefined) [SCAMMONIN 1] |  |  | 55.1% | Active | inactive | 100% |  | 
3 | CCCCCC1CCCCCCCCCC(=O)O[C@@H]2[C@@H](O[C@@H]3O[C@H](C)[C@@H](O)[C@H](O)[C@H]3O)[C@H](C)O[C@@H](O[C@H]3[C@H](O[C@H]4[C@H](O1)O[C@H](C)[C@@H](O)[C@@H]4O)O[C@H](CO)[C@@H](O)[C@@H]3O)[C@@H]2OC(=O)C(C)CC (some centres undefined) [SCAMMONIN 2] |  |  |  |  | inactive | 66% |  | 
4 | CCCCCC1CCCCCCCCCC(=O)O[C@@H]2[C@@H](O[C@@H]3O[C@H](C)[C@@H](OC(=O)C(C)CC)[C@H](O)[C@H]3O)[C@H](C)O[C@@H](O[C@H]3[C@H](O[C@H]4[C@H](O1)O[C@H](C)[C@@H](O)[C@@H]4O)O[C@H](CO)[C@@H](O)[C@@H]3O)[C@@H]2OC(=O)CCC (some centres undefined) [TYRIANTHIN 6] |  |  | 59.1% | Active | inactive | 88% | Active | 33.33%
